Experimental data reported in patent publication US10023559B2 (Hoffmann-La Roche Inc., priority 2014, dated 2018).

What was measured:
[1] = target: mouse TAAR1 (Mus musculus (Mouse), UniProt Q923Y8); assay: Radioligand binding assay on mouse TAAR1
Procedure: Membrane Preparation and Radioligand Binding.
HEK-293 cells stably expressing mouse TAAR1 were maintained at 37° C. and 5% CO2 in DMEM high glucose medium, containing fetal calf serum (10%, heat inactivated for 30 min at 56° C.), penicillin/streptomycin (1%), and 375 μg/ml geneticin (Gibco). Cells were released from culture flasks using trypsin/EDTA, harvested, washed twice with ice-cold PBS (without Ca^2+ and Mg^2+), pelleted at 1,000 rpm for 5 min at 4° C., frozen and stored at −80° C. Frozen pellets were suspended in 20 ml HEPES-NaOH (20 mM, pH 7.4) containing 10 mM EDTA and homogenized with a Polytron (PT 6000, Kinematica) at 14,000 rpm for 20 s. The homogenate was centrifuged at 48,000×g for 30 min at 4° C. Subsequently, the supernatant was removed and discarded, and the pellet resuspended in 20 ml HEPES-NaOH (20 mM, pH 7.4) containing 0.1 mM EDTA using the Polytron (20 s at 14,000 rpm). This procedure was repeated and the final pellet resuspended in HEPES-NaOH containing 0.1 mM EDTA and homogenized using the Polytron. Typically, aliquots of 2 ml membrane portions were stored at −80° C. With each new membrane batch the dissociation constant (Kd) was determined via a saturation curve. […] Nonspecific binding was defined as the amount of ^3[H]—(S)-4-[(ethyl-phenyl-amino)-methyl]-4,5-dihydro-oxazol-2-ylamine bound in the presence of 10 M unlabeled ligand. All compounds were tested at a broad range of concentrations (10 pM to 10 μM) in duplicates. […] The 96 deep well plates were incubated for 1 hr at 4° C. Incubations were terminated by rapid filtration through Unifilter-96 plates (Packard Instrument Company) and glass filters GF/C (Perkin Elmer) presoaked for 1 hr in polyethylenimine (0.3%) and washed 3 times with 1 ml of cold binding buffer. After addition of 45 μl of Microscint 40 (PerkinElmer) the Unifilter-96 plate was sealed and after 1 hr the radioactivity counted using a TopCount Microplate Scintillation Counter (Packard Instrument Company).

[2] = target: rat TAAR1 (Rattus norvegicus (Rat), UniProt Q923Y9); assay: Radioligand binding assay on rat TAAR1; settings: read-out: Ki(μM) rat; rat TAAR1, HEK-293 membranes, second value of cell pair mouse/rat
rat TAAR1, sequence (Q923Y9 whole entry): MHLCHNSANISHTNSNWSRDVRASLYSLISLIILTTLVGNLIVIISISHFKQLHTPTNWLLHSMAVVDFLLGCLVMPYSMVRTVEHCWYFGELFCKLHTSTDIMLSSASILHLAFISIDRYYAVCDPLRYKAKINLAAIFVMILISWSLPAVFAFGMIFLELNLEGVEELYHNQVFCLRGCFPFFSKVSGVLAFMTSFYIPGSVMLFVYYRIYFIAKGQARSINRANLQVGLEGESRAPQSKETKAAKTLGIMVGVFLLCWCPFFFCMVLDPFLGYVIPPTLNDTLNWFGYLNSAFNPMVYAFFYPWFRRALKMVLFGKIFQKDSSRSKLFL

mouse TAAR1, sequence (Q923Y8 whole entry): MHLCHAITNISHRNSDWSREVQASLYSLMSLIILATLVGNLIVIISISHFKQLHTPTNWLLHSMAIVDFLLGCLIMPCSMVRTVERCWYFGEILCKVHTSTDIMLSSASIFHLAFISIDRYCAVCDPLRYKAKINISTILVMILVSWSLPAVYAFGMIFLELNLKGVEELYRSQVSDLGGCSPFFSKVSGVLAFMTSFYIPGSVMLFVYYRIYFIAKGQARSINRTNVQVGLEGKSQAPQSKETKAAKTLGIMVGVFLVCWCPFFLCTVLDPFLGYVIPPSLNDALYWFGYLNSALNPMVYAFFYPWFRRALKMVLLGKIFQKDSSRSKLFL

Ki [1] | Ki [2] | Compound
13.4 nM | 0.0145 µM | CC(C)(C)c1n[nH]c(C(=O)Nc2ccc(OC3CNC3)cc2)c1Cl [Example 32, N-[4-(azetidin-3-yloxy)phenyl]-3-tert-butyl-4-chloro-1H-pyrazole-5-carboxamide]
19.5 nM | – | O=C(Nc1ccc(OC2CNC2)cc1)c1cnc(C(F)(F)F)nc1 [Example 6, N-(4-(azetidin-3-yloxy)phenyl)-2-(trifluoromethyl)pyrimidine-5-carboxamide]
8.5 nM | 0.165 µM | O=C(Nc1ccc(SC2CNC2)cc1)c1cnc(C2CC2)nc1 [Example 44, N-[4-(azetidin-3-ylsulfanyl)phenyl]-2-cyclopropyl-pyrimidine-5-carboxamide]
13.1 nM | 0.0081 µM | O=C(Nc1ccc(SC2CNC2)cc1)Nc1ccc(C(F)(F)F)cc1 [Example 110, 1-[4-(azetidin-3-ylsulfanyl)phenyl]-3-[4-(trifluoromethyl)phenyl]urea]
47.7 nM | 0.105 µM | FC(F)(F)c1cnc(Nc2ccc(OC3CNC3)cc2)nc1 [Example 9, N-(4-(azetidin-3-yloxy)phenyl)-5-(trifluoromethyl)pyrimidin-2-amine]
8.4 nM | 0.0099 µM | O=C(Nc1ccc(C=C2CNC2)cc1)c1ccnc(C(F)(F)F)c1 [Example 60, N-[4-(azetidin-3-ylidenemethyl)phenyl]-2-(trifluoromethyl)pyridine-4-carboxamide]
137 nM | 0.0927 µM | CC(C)c1cc(C(=O)Nc2ccc(OC3CNC3)cc2)[nH]n1 [Example 12, N-(4-(azetidin-3-yloxy)phenyl)-3-isopropyl-1H-pyrazole-5-carboxamide]
15.5 nM | – | O=C(Nc1ccc(OC2CNC2)c(F)c1)c1cnc(C2CC2)nc1 [Example 27, N-[4-(azetidin-3-yloxy)-3-fluoro-phenyl]-2-cyclopropyl-pyrimidine-5-carboxamide]
5.6 nM | – | COc1cc(C(=O)Nc2ccc(OC3CNC3)cc2)cc(C#N)n1 [Example 7, N-(4-(azetidin-3-yloxy)phenyl)-2-cyano-6-methoxyisonicotinamide]
12.3 nM | – | O=C(Nc1ccc(OC2CNC2)cc1)c1ccnc(C(F)(F)F)c1 [Example 5, N-(4-(azetidin-3-yloxy)phenyl)-2-(trifluoromethyl)isonicotinamide]

More lines, now with the values behind:

Compound | Ki [1] | Ki [2]
O=C(Nc1ccc(Cl)nc1)c1ccc(OC2CNC2)cc1Cl [Example 53, 4-(azetidin-3-yloxy)-2-chloro-N-(6-chloro-3-pyridyl)benzamide] | 55.2 nM | 2.43 µM
COC1(Cc2ccc(NC(=O)c3ccc(Cl)nc3)cc2)CNC1 [Example 73, 6-chloro-N-[4-[(3-methoxyazetidin-3-yl)methyl]phenyl]pyridine-3-carboxamide] | 13.6 nM | 0.0543 µM
COc1ccc(C[C@@H]2NC[C@@H]2F)cc1 [Example 96, (2S,3S)-3-fluoro-2-(4-methoxybenzyl)azetidine] | 2760 nM | –
CCOc1ccc(C(=O)Nc2ccc(OC3CNC3)c(F)c2)cn1 [Example 28, N-[4-(azetidin-3-yloxy)-3-fluoro-phenyl]-6-ethoxy-pyridine-3-carboxamide] | 9.6 nM | 0.0284 µM
O=C(Nc1ccc(C[C@@H]2CCN2)cc1)c1ccc(Cl)cc1 [Example 72, N-[4-[[(2R)-azetidin-2-yl]methyl]phenyl]-4-chloro-benzamide] | 3.9 nM | 0.0686 µM
O=C(Nc1ccc(OC2CNC2)cc1)Nc1cccc(Cl)c1 [Example 109, 1-[4-(azetidin-3-yloxy)phenyl]-3-(3-chlorophenyl)urea] | 4.6 nM | 0.003 µM
COc1ccc(C[C@H]2NC[C@H]2F)cc1 [Example 98, (2R,3R)-3-fluoro-2-(4-methoxybenzyl)azetidine] | 200 nM | –
COc1ccc(C[C@@H]2NC[C@H]2F)cc1 [Example 97, (2S,3R)-3-fluoro-2-(4-methoxybenzyl)azetidine] | 1630 nM | –
COc1ccc(C[C@H]2NC[C@@H]2F)cc1 [Example 99, (2R,3S)-3-fluoro-2-(4-methoxybenzyl)azetidine] | 200 nM | –
